In patent publication US20210315893A1 (Galapagos NV, priority 2017, published 2021) one finds EC50 data, which are given here for 7 molecules.

In general, EC50 refers to the concentration at which the effect is half-maximal.

In test [1] the target is T1, S1PR2 (Homo sapiens, UniProt O95136).
T1 construct: expressed in transfected cells
The test is described as follows: S1PR2 binding assay (competition with radioactively labeled S1P, SpA). The settings on record: membranes from stable cell line over expressing S1PR2, SpA beads; read-out: S1P2 EC50 (nM), S1PR2 binding EC50. The method in brief:
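Scintillation proximity read-out after 2 h room-temperature incubation of compound, [3H]S1P and S1PR2-overexpressing cell membranes on WGA-coated beads. Buffer: 20 mM Tris pH 7.5, 100 mM NaCl, 10 mM MgCl2, 1 mM Na3VO4, 0.4% fatty-acid-free BSA; plates counted immediately after centrifugation.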

Test [2] deals with HFL-1 cells. The test is described as follows: IL-8 production assay (S1P induced IL-8). The format is cell-based. The note with it: Homo sapiens, HFL1; S1P (1 μM) induced IL-8 in HFL-1 cells, starvation medium without HSA; read-out: IL8 EC50. A digest of the protocol: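 HFL-1 fibroblasts in low-serum medium were pretreated 1 h with a 10-point 1/3 series of compound starting at 30 μM (0.3% DMSO).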

Test [3] deals with HFL-1 cells. The experiment in a line: IL8 assay in the presence of Human Serum Albumin. The note with it: HFL1, read-out: HSA IL8 EC50.
The target of test [4] is T2, human GPCR sphingosine 1-phosphate receptor 5 (Homo sapiens, UniProt Q9H228).
T2 construct: host or cells: CHO
The test is described as follows: S1PR5 selectivity Ca2+ flux assay (antagonist readout). The format is cell-based. The note with it: CHO cells overexpressing human S1PR5 and Gq, agonist at EC80 (20 nM), read-out: S1P5 EC50 (nM), S1P5 antagonist EC50. The method in brief: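 Antagonist readout: after 15 min compound preincubation at 37° C, human S1PR5/Gq CHO cells loaded with Fluo 8 dye received an EC80 challenge of S1PR5-specific agonist, and fluorescence was recorded for 3 min. Maximal-over-background ratios, normalized as % inhibition, gave IC50 by logistic fit.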
In general terms: Calcium flux is commonly read through the fluorescence of an indicator in the cells.

Test [5] concerns the target T3, human GPCR sphingosine 1-phosphate receptor 1 (Homo sapiens, UniProt P21453).
T3 construct: host or cells: CHO
The test is described as follows: S1PR1 selectivity Ca2+ flux assay (antagonist readout). It is filed as cell-based. The settings on record: antagonist readout, CHO cells overexpressing human S1PR1 and Gq, S1P at EC80 (6 nM); read-out: S1P1 EC50 (nM), S1P1 antagonist EC50. The method in brief: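 Antagonist mode: S1P challenge follows 15 min compound preincubation at 37 °C. Cells are CHO stably expressing human S1PR1, serum-starved 1 h (0.1% FAF BSA), loaded with Fluo 8. Peak-over-baseline fluorescence ratio is normalized to positive/negative controls; IC50 from logistic curve fit.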

The target of test [6] is T4, human GPCR sphingosine 1-phosphate receptor 2 (Homo sapiens, UniProt O95136).
T4 construct: host or cells: CHO
The test is described as follows: S1PR2 antagonist Ca2+ flux assay. It is filed as cell-based. The settings on record: antagonist mode, CHO-S1PR2 cells, S1P at EC80, Ca2+ fluorescence; read-out: S1P2 EC50 (nM), S1P2 antagonist EC50. The method in brief:
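Antagonist mode: 15 min after compound addition, S1P (EC80) stimulates Fluo8-loaded, 1 h-starved CHO-S1PR2 cells, Ca2+ read over 3 min; a prior 3-min read checks compound agonism. EC50 from peak/baseline fluorescence ratio, normalised versus vehicle and S1P EC50 (antagonist) or EC100 (agonist).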

Structures are written as SMILES.

T2 sequence (Q9H228 whole entry): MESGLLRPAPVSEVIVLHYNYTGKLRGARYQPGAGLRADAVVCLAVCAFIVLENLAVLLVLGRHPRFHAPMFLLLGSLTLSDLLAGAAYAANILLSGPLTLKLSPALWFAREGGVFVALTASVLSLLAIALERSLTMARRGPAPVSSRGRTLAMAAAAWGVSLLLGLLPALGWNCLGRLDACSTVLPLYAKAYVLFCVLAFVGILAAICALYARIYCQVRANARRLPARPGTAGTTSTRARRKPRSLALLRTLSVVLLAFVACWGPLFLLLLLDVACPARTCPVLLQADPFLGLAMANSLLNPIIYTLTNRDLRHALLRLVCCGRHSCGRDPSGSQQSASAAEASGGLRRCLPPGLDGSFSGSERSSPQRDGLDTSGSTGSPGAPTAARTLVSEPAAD
T3 sequence (P21453 whole entry): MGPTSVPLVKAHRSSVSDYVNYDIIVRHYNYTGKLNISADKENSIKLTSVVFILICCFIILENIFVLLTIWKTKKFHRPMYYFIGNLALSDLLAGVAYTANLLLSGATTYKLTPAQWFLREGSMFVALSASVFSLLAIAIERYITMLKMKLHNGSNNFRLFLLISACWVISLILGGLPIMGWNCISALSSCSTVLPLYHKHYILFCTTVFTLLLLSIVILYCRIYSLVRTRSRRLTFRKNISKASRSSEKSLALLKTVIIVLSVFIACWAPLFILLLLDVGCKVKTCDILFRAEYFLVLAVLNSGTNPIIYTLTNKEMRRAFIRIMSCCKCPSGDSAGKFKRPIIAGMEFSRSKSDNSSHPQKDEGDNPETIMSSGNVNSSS
T4 sequence (O95136 whole entry): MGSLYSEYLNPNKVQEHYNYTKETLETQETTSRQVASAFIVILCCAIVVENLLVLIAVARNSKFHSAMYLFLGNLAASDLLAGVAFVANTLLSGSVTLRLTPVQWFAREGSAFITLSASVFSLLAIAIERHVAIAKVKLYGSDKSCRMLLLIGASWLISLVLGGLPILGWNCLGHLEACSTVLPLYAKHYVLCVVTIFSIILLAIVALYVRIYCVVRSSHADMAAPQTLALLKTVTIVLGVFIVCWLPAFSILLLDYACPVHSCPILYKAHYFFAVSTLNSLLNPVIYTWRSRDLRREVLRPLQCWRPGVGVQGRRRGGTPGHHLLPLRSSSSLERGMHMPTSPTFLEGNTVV
T1 sequence (O95136 whole entry): as above

On to `CCOc1cc2[nH]c(Cc3nn(CC(=O)N4CCOCC4)c(=O)c4ccccc34)nc2cc1C#N` [Compound 170, 6-ethoxy-2-[[3-(2-morpholino-2-oxo-ethyl)-4-oxo-phthalazin-1-yl]methyl]-1H-benzimidazole-5-carbonitrile], for which the concentration for a half-maximal effect (EC50) in test [1] is 112 nM; in test [2], 10.6 nM; in test [3], 137 nM; in test [4], 19800 nM; in test [5], no less than 19800 nM; in test [6], 42.5 nM.

In the case of `O=c1c2ccccc2c(Cc2nc3cc(Cl)c(OC(F)(F)F)cc3[nH]2)nn1C1CC1` [Compound 25, 4-[[5-chloro-6-(trifluoromethoxy)-1H-benzimidazol-2-yl]methyl]-2-cyclopropyl-phthalazin-1-one], the EC50 in test [1] was 565 nM; in test [2], 836 nM; in test [3] it was 10000 nM; in test [4], 4790 nM; in test [5], 4710 nM; in test [6] it was 218 nM.

Regarding `O=c1c2ccccc2c(Cc2nc3cc(Cl)c(OC(F)(F)F)cc3[nH]2)nn1CC1CCNCC1` [Compound 56, 4-[[6-chloro-5-(trifluoromethoxy)-1H-benzimidazol-2-yl]methyl]-2-(4-piperidylmethyl)phthalazin-1-one], the EC50 in test [1] was 722 nM; in test [2] it was 3330 nM; in test [3], 2930 nM; in test [4], 19800 nM; in test [5], no less than 19800 nM; in test [6], 839 nM.

As to `CN(C)C1CCN(C(=O)Cn2nc(Cc3nc4cc(C#N)c(OCC(F)F)cc4[nH]3)c3c(c2=O)CCCC3)C1` (stereo not drawn) [Compound 204, 6-(2,2-difluoroethoxy)-2-[[3-[2-[3-(dimethylamino)pyrrolidin-1-yl]-2-oxo-ethyl]-4-oxo-5,6,7,8-tetrahydrophthalazin-1-yl]methyl]-1H-benzimidazole-5-carbonitrile], the EC50 was 296 nM in test [1]; 120 nM in test [2]; 546 nM in test [3]; 19800 nM in test [4]; no less than 19800 nM in test [5]; 117 nM in test [6].

Regarding `CC(F)(F)COc1cc2[nH]c(Cc3nn(CC(=O)N4CCOCC4)c(=O)c4ccccc34)nc2cc1Cl` [Compound 172, 4-[[5-chloro-6-(2,2-difluoropropoxy)-1H-benzimidazol-2-yl]methyl]-2-(2-morpholino-2-oxo-ethyl)phthalazin-1-one], the EC50 in test [1] was 15.8 nM; in test [2], 29.1 nM; in test [3] it was 33.4 nM; in test [4] it was 19800 nM; in test [5], no less than 19800 nM; in test [6] it was 7.57 nM.

With `N#Cc1cc2[nH]c(Cc3nn(CC(=O)N4CCC(O)(C5CC5)CC4)c(=O)c4ccccc34)nc2cc1OCC(F)F` [Compound 213, 2-[[3-[2-(4-cyclopropyl-4-hydroxy-1-piperidyl)-2-oxo-ethyl]-4-oxo-phthalazin-1-yl)methyl]-6-(2,2-difluoroethoxy)-3H-benzimidazole-5-carbonitrile], the EC50 in test [1] was 159 nM; in test [2] it was 70.7 nM; in test [3], 178 nM; in test [4] it was 19800 nM; in test [5], no less than 19800 nM; in test [6], 41.4 nM.

`O=C(Cn1nc(Cc2cc3cc(Cl)c(OCC(F)F)cc3[nH]2)c2ccccc2c1=O)N1CCOCC1` [compound 11, 4-[[5-chloro-6-(2,2-difluoro-ethoxy)-1H-indol-2-yl]-methyl]-2-(2-morpholino-2-oxo-ethyl)-phthalazin-1-one]: the EC50 in test [1] was 324 nM; in test [2] it was 59.6 nM; in test [3], 694 nM; in test [4], 19800 nM; in test [5] it was no less than 19800 nM; in test [6], 80 nM.
